Test results from patent US6969702B2, “Compounds and methods for increasing neurogenesis” (priority 2002, dated 2005).
Marks after values point to notes of the source that are not given here. Square brackets hold non-standard residues; d marks the D form. Peptide text beside a SMILES is read from it. d(pGlu) = O=C1CC[C@H](C(=O)O)N1

Assays:
[1] = system: Adult neural stem cells; assay: Flow cytometry for early neuronal marker Doublecortin; settings: for % Doublecortin-positive cells / Fold Induction (Doublecortin-positive cells): Table 6; for % Doublecortin-positive cells: 4 days; for Fold Induction (Doublecortin-positive cells): vs EGF/FGF
[2] = system: mouse adult neural stem cells; assay: ATP-assay: proliferation (ATP levels) of neurosphere-derived cells; settings: for Fold Induction ATP: vs vehicle
[3] = system: cAMP activation in mouse adult neural stem cells; assay: cAMP detection (HitHunter EFC Cyclic AMP Chemiluminescence Assay); settings: for Fold Induction cAMP: vs vehicle
[4] = Table 2, 10 nM (cAMP concentration)
[5] = Table 2, 100 nM (cAMP concentration)
[6] = Table 2, 1 nM (cAMP concentration)

C[C@H](NC(=O)[C@@H](Cc1c[nH]c2ccccc12)NC(=O)[C@@H](N)Cc1c[nH]cn1)C(=O)N[C@@H](Cc1c[nH]c2ccccc12)C(=O)N[C@H](Cc1ccccc1)C(=O)N[C@@H](CCCCN)C(N)=O [(D-Trp7.Ala8.D-Phe10)-α-Melanocyte stimulating hormone F: 6-11/GHRP] (H-H[dW]AW[dF]K-NH2; N-terminus and C-terminus assumed)
% Doublecortin-positive cells ([1]; 100 nM): 5.3%

CSCC[C@@H]1NC(=O)[C@H](C)NC(=O)[C@H]([C@@H](C)O)NC(=O)CNC(=O)[C@H](CC(C)C)NC(=O)[C@H](CCCCN)NC(=O)[C@H](CCCNC(=N)N)NC(=O)[C@@H]2CSSC[C@@H]3NC(=O)[C@@H]4CCCN4C(=O)[C@H](C(C)C)NC(=O)[C@H](CCC(N)=O)NC(=O)[C@H](CCC(N)=O)NC(=O)CNC(=O)[C@H](CC(C)C)NC(=O)[C@@H]4CSSC[C@H](NC(=O)[C@H]([C@@H](C)O)NC(=O)[C@H](C)NC(=O)[C@H](CSSC[C@@H](C(=O)N[C@@H](CO)C(=O)N[C@@H](CCCNC(=N)N)C(=O)N[C@H](C(N)=O)[C@@H](C)O)NC(=O)[C@@H]5CCCN5C(=O)[C@H](CC(N)=O)NC1=O)NC(=O)[C@@H]1CCCN1C(=O)[C@H](CC(=O)O)NC(=O)[C@H](CSSC[C@H](N)C(=O)N[C@@H](C(C)C)C(=O)N[C@@H](CCCNC(=N)N)C(=O)N[C@@H](CC(C)C)C(=O)N[C@@H](Cc1c[nH]cn1)C(=O)N[C@@H](CCC(=O)O)C(=O)N[C@@H](CO)C(=O)N4)NC3=O)C(=O)N[C@@H](Cc1ccc(O)cc1)C(=O)N[C@H]1CSSC[C@H](NC(=O)[C@H](Cc3ccccc3)NC(=O)[C@H](C)NC(=O)[C@H](CC(N)=O)NC(=O)[C@H](Cc3ccccc3)NC(=O)[C@H](Cc3ccccc3)NC(=O)[C@H](CCCNC(=N)N)NC1=O)C(=O)N[C@@H](Cc1ccc(O)cc1)C(=O)N2 [Agouti Related Protein (87-132)-Amide (Human)]
ATP (nM ATP/well) ([2]; Table 2, 10 nM, 4 days): 11.2 ± 1.7 nM ATP/well | Fold Induction ATP ([2]; Table 2, 10 nM, 4 days): 1.4* fold | cAMP (pmol/well) [3, 4]: 0.5 ± 0.20 pmol/well | Fold Induction cAMP ([3]; Table 2, 10 nM): 2.4* fold | % Doublecortin-positive cells ([1]; 100 nM): 2.4% | Fold Induction (Doublecortin-positive cells) ([1]; 100 nM): 0.9 fold

CSCC[C@H](NC(=O)[C@H](Cc1ccc(O)cc1)NC(=O)[C@@H](N)CC(=O)O)C(=O)NCC(=O)N[C@@H](Cc1c[nH]c2ccccc12)C(=O)N[C@@H](CCSC)C(=O)N[C@@H](CC(=O)O)C(=O)N[C@@H](Cc1ccccc1)C(N)=O [Cholecystokinin Octapeptide [CCK(26-33)]]
ATP (nM ATP/well) ([2]; Table 2, 10 nM, 4 days): 9.8 ± 0.4 nM ATP/well | cAMP (pmol/well) [3, 5]: 0.27 ± 0.06 pmol/well | % Doublecortin-positive cells ([1]; 100 nM): 3.2%

NC(=O)CC[C@@H]1NC(=O)[C@H](Cc2ccccc2)NC(=O)[C@H](Cc2ccc(O)cc2)NC(=O)CCSSC[C@@H](C(=O)N2CCC[C@H]2C(=O)N[C@H](CCCN=C(N)N)C(=O)NCC(N)=O)NC(=O)[C@H](CC(N)=O)NC1=O [DDAVP]
ATP (nM ATP/well) ([2]; Table 2, 100 nM, 4 days): 11.5 ± 1.4 nM ATP/well | Fold Induction ATP ([2]; Table 2, 100 nM, 4 days): 1.5* fold | cAMP (pmol/well) [3, 4]: 0.27 ± 0.02 pmol/well | Fold Induction cAMP ([3]; Table 2, 10 nM): 1.9*** (10 nM) fold | % Doublecortin-positive cells ([1]; 100 nM): 4.6% | Fold Induction (Doublecortin-positive cells) ([1]; 100 nM): 1.8 fold

CC(C)C[C@H](NC(=O)[C@H](Cc1ccccc1)NC(=O)CNC(=O)[C@H](NC(=O)[C@@H](N)Cc1ccc(O)cc1)[C@H](C)O)C(=O)N[C@H](C(=O)O)[C@@H](C)O [DTLET]
ATP (nM ATP/well) ([2]; Table 2, 10 nM, 4 days): 9.2 ± 0.9 nM ATP/well | % Doublecortin-positive cells ([1]; 100 nM): 4.1%

C=C[C@@]1(C)CC(=O)[C@]2(O)[C@@]3(C)[C@@H](O)CCC(C)(C)[C@@H]3[C@H](O)[C@H](OC(C)=O)[C@@]2(C)O1 [Forskolin, forskolin]
fold induction at 1 µM ([2]; Mus musculus, Neural stem cell, 96 h, read-out: Fold Induction ATP): 1.1 | ATP (nM ATP/well) ([2]; Table 1, 1000 nM, 4 days in culture): 10.4 ± 2.4 nM ATP/well | fold induction at 1 µM ([3]; Mus musculus, Neural stem cell, 0.25 h, read-out: Fold Induction cAMP): 3.1 | cAMP (pmol/well) ([3]; Table 1, 1000 nM, after 15 minutes): 0.07 ± 0.01 pmol/well | fold induction at 10 µM ([1]; Mus musculus, Neural stem cell, read-out: Fold Induction (Doublecortin-positive cells)): 2.5 | % Doublecortin-positive cells ([1]; 10 μM): 6.3%

CNC(=O)[C@H]1O[C@@H](n2cnc3c(N)ncnc32)[C@H](O)[C@@H]1O [MECA]
ATP (nM ATP/well) ([2]; Table 2, 100 nM, 4 days): 7.4 ± 0.7 nM ATP/well | Fold Induction ATP ([2]; Table 2, 100 nM, 4 days): 1.6** fold | cAMP (pmol/well) [3, 5]: 3.89 ± 1.00 pmol/well | Fold Induction cAMP ([3]; Table 2, 100 nM): 2.1* fold | % Doublecortin-positive cells ([1]; 10 μM): 2.2% | Fold Induction (Doublecortin-positive cells) ([1]; 10 μM): 0.9 fold

CC(C)C[C@H](NC(=O)[C@H](CCCCN)NC(=O)CNC(=O)[C@H](CC(C)C)NC(=O)[C@@H](NC(=O)[C@@H]1CSSC[C@H](N)C(=O)N[C@@H](CO)C(=O)N[C@@H](CC(N)=O)C(=O)N[C@@H](CC(C)C)C(=O)N[C@@H](CO)C(=O)N[C@@H]([C@@H](C)O)C(=O)N1)C(C)C)C(=O)N[C@@H](CO)C(=O)N[C@@H](CCC(N)=O)C(=O)N[C@@H](CCC(=O)O)C(=O)N[C@@H](CC(C)C)C(=O)N[C@@H](Cc1c[nH]cn1)C(=O)N[C@@H](CCCCN)C(=O)N[C@@H](CC(C)C)C(=O)N[C@@H](CCC(N)=O)C(=O)N[C@H](C(=O)N[C@@H](Cc1ccc(O)cc1)C(=O)N1CCC[C@H]1C(=O)N[C@@H](CCCNC(=N)N)C(=O)N[C@H](C(=O)N[C@@H](CC(N)=O)C(=O)N[C@H](C(=O)NCC(=O)N[C@@H](CO)C(=O)NCC(=O)N[C@H](C(=O)N1CCC[C@H]1C(N)=O)[C@@H](C)O)[C@@H](C)O)[C@@H](C)O)[C@@H](C)O [Thyrocalcitonin (Salmon)]
ATP (nM ATP/well) ([2]; Table 2, 1 nM, 4 days): 9.2 ± 0.7 nM ATP/well | Fold Induction ATP ([2]; Table 2, 1 nM, 4 days): 1.3* fold | cAMP (pmol/well) [3, 6]: 0.63 ± 0.23 pmol/well | Fold Induction cAMP ([3]; Table 2, 1 nM): 3.8* (1 nM) fold | % Doublecortin-positive cells ([1]; 100 nM): 3.9% | Fold Induction (Doublecortin-positive cells) ([1]; 100 nM): 1.5 fold

N=C(N)NCCC[C@@H](N)C(=O)N[C@@H](CCCNC(=N)N)C(=O)N1CCC[C@H]1C(=O)N1C[C@H](O)C[C@H]1C(=O)NCC(=O)N[C@H](C(=O)N[C@@H](CO)C(=O)N[C@@H](C(=O)N1[C@H](C(=O)N[C@@H](CCCNC(=N)N)C(=O)O)C[C@@H]2CCCC[C@@H]21)C1Cc2ccccc2C1)C1Cc2ccccc2C1 [[D-Arg0, Hyp3, Ig15, D-Ig17, Oic8]-Bradykinin]
ATP (nM ATP/well) ([2]; Table 2, 100 nM, 4 days): 13.1 ± 2.1 nM ATP/well | cAMP (pmol/well) [3, 4]: 0.17 ± 0.02 pmol/well | % Doublecortin-positive cells ([1]; 100 nM): 3.6%

CC(C)C[C@H](NC(=O)[C@@H](Cc1c[nH]c2ccccc12)NC(=O)[C@H](Cc1ccc(O)cc1)NC(=O)[C@H](CO)NC(=O)[C@@H](Cc1c[nH]c2ccccc12)NC(=O)[C@@H](Cc1ccccc1)NC(=O)[C@H]1CCC(=O)N1)C(=O)N[C@@H](CCCNC(=N)N)C(=O)N1CCC[C@H]1C(=O)NCC(N)=O [[D-pGlu1,D-Phe2, D-Trp3,6]-LH-RH] ([d(pGlu)][dF][dW]SY[dW]LRPG-NH2; C-terminus assumed)
ATP (nM ATP/well) ([2]; Table 2, 100 nM, 4 days): 11.1 ± 0.4 nM ATP/well | cAMP (pmol/well) [3, 6]: 0.07 ± 0.02 pmol/well | % Doublecortin-positive cells ([1]; 100 nM): 3.4%

N=C(N)NCCC[C@H](N)C(=O)N1CCC[C@H]1C(=O)N1CCC[C@H]1C(=O)NCC(=O)N[C@@H](Cc1ccccc1)C(=O)N[C@@H](CO)C(=O)N1CCC[C@H]1C(=O)N[C@@H](Cc1ccccc1)C(=O)O [[Des-Arg9]-Bradykinin]
ATP (nM ATP/well) ([2]; Table 2, 1 nM, 4 days): 10.4 ± 1.0 nM ATP/well | Fold Induction ATP ([2]; Table 2, 1 nM, 4 days): 1.2* fold | cAMP (pmol/well) [3, 6]: 0.06 ± 0.01 pmol/well | Fold Induction cAMP ([3]; Table 2, 1 nM): 1.7*** fold | % Doublecortin-positive cells ([1]; 100 nM): 4.5% | Fold Induction (Doublecortin-positive cells) ([1]; 100 nM): 1.8 fold
